Experimental data reported in patent US20130231276A1, “Combination Of An Aminoacyl-tRNA Synthetase Inhibitor With A Further Antibacterial Agent For Attenuating Multiple Drug Resistance” (BROWN UNIVERSITY, priority 2010, published 2013).
≈ marks a conversion by molar mass, not a printed value. Like-named read-outs stand apart in the source and are kept apart here.

How the values were obtained:
[1] = system: Streptomyces coelicolor M600; assay: MIC on Difco Nutrient Agar with sub-lethal indolmycin, strain M600 (wild-type); format: cell-based; settings: for MIC: Streptomyces coelicolor, M600, 48 h, 30° C., 48 hours
Description: (§1) Changes in the susceptibility of S. coelicolor to three clinically used antibacterial drugs (chloramphenicol, erythromycin, and vancomycin) grown in the presence of indolmycin were assessed. The effects of antibiotic combinations were assessed in wild-type S. coelicolor, which has an auxiliary, indolmycin-resistant isoform of tryptophanyl-tRNA synthetase (TrpRS1). We also examined these combinations in three other indolmycin-resistant strains of S. coelicolor—a trpRS2 null strain (B728) (8) and two strains lacking trpRS1 with resistance conferring point mutations in trpRS2 (B734 with TrpRS2 H48N and B735 with TrpRS2 H48Q) (9). These strains were selected because the strong antibacterial activity of indolmycin precluded testing of this hypothesis in the indolmycin-sensitive trpRS1 null strain of S. coelicolor. The effects were measured in terms of changes in the chloramphenicol, erythromycin, and vancomycin MICs of the four strains over a range of sub-lethal indolmycin concentrations.
(§2) Streptomyces coelicolor strains were grown on DIFCO Nutrient Agar supplemented with indolmycin (0-100 μg/mL) and one of the following antibacterial agents: chloramphenicol (10-80 μg /mL), erythromycin (1-110 μg/mL), and vancomycin (30-140 μg/mL). The strains were grown on the media at 30° C. for 48 hours, after which point growth was assessed visually.
(§3) A 50 mg/mL (active enantiomer) stock solution of indolmycin was prepared by dissolving the indolmycin in DMSO. The concentrations of each stock solution reflect the actual concentration of the pharmacologically active substance. Aliquots of the stock solutions were added directly to molten, sterile DIFCO Nutrient Agar prior to solidification. Streptomyces coelicolor spores were directly spread onto the surface of each DNA plate and the plates were incubated at 30° C. for about 48 hours. Growth was assessed visually after the incubation period. Minimal inhibitory concentrations (MICs) reflect the drug concentrations at which no Streptomyces coelicolor growth was observed.
(§4) All Streptomyces strains were grown on Difco Nutrient Agar at 30° C. The MICs were assessed after 48 hours.

[2] = system: Streptomyces coelicolor B728; assay: MIC on Difco Nutrient Agar with sub-lethal indolmycin, strain B728 (trpRS2 null); format: cell-based
Description: as §1, §2, §3, §4

S. coelicolor = assay: Indolmycin MIC against S. coelicolor; format: cell-based, Streptomyces coelicolor; settings: indolmycin alone
[3] = system: methicillin-resistant Staphylococcus aureus; settings: cited from earlier work
Helicobacter pylori = settings: cited from earlier work
[4] = molecular target: tryptophanyl-tRNA synthetase (TrpRS1) (Streptomyces coelicolor, UniProt Q8CJX0); settings: TrpRS1 of S. coelicolor, reference (19), cited from earlier work
tryptophanyl-tRNA synthetase (TrpRS1), sequence (Q8CJX0 whole entry): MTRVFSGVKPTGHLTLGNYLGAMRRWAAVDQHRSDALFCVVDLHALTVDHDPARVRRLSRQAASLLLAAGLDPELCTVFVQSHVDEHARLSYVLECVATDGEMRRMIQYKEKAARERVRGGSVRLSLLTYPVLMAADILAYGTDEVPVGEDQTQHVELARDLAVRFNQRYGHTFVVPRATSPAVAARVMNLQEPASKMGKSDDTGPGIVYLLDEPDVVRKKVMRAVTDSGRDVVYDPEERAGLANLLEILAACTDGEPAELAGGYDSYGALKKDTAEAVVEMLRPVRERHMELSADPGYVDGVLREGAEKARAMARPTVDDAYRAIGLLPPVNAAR

[5] = strain M600, 0 μg/ml Indolmycin, read-out: MIC
[6] = strain M600, 10 μg/ml Indolmycin, read-out: MIC
[7] = strain M600, 25 μg/ml Indolmycin, read-out: MIC
[8] = strain M600, 50 μg/ml Indolmycin, read-out: MIC
[9] = strain M600, 75 μg/ml Indolmycin, read-out: MIC
[10] = strain M600, 100 μg/ml Indolmycin, read-out: MIC
[11] = Streptomyces coelicolor, B728, 48 h, strain B728, 0 μg/ml Indolmycin, 30° C., 48 hours
[12] = Streptomyces coelicolor, B728, 48 h, strain B728, 10 μg/ml Indolmycin, 30° C., 48 hours
[13] = Streptomyces coelicolor, B728, 48 h, strain B728, 25 μg/ml Indolmycin, 30° C., 48 hours
[14] = Streptomyces coelicolor, B728, 48 h, strain B728, 50 μg/ml Indolmycin, 30° C., 48 hours
[15] = Streptomyces coelicolor, B728, 48 h, strain B728, 75 μg/ml Indolmycin, 30° C., 48 hours
[16] = Streptomyces coelicolor, B728, 48 h, strain B728, 100 μg/ml Indolmycin, 30° C., 48 hours

Row | Compound | MIC [1, 5] [µg/mL] | MIC [1, 6] [µg/mL] | MIC [1, 7] [µg/mL] | MIC [1, 8] [µg/mL] | MIC [1, 9] [µg/mL] | MIC [1, 10] [µg/mL] | MIC [2, 11] [µg/mL] | MIC [2, 12] [µg/mL] | MIC [2, 13] [µg/mL] | MIC [2, 14] [µg/mL] | MIC [2, 15] [µg/mL] | MIC [2, 16] [µg/mL] | other results
1 | O=C(N[C@H](CO)[C@H](O)c1ccc([N+](=O)[O-])cc1)C(Cl)Cl [Chloramphenicol, chloramphenicol] | 80 | 35 | 25 | 20 | 15 | 10 | 60 | 40 | 30 | 30 | 20 | 20 | MIC was reduced ([1]; wild-type S. coelicolor, media supplemented with indolmycin): 10 fold
2 | CC[C@H]1OC(=O)[C@H](C)[C@@H](O[C@H]2C[C@@](C)(OC)[C@@H](O)[C@H](C)O2)[C@H](C)[C@@H](O[C@@H]2O[C@H](C)C[C@H](N(C)C)[C@H]2O)[C@](C)(O)C[C@@H](C)C(=O)[C@H](C)[C@@H](O)[C@]1(C)O [Erythromycin, erythromycin] | 110 | 40 | 30 | 15 | 10 | 5 | 70 | 50 | 30 | 20 | 10 | 5 | –
3 | CN=C1NC(=O)[C@H]([C@H](C)c2c[nH]c3ccccc23)O1 [indolmycin] | – | – | – | – | – | – | – | – | – | – | – | – | MIC (S. coelicolor): > 500 µg/mL; MIC [3]: 0.5 µg/mL (≈ 1.94 µM); MIC (Helicobacter pylori): 0.016 µg/mL (≈ 0.0622 µM); Ki [4]: 900 nM; Ki ([4]; listed as Indolmycin): ~900 nM
4 | CN[C@H](CC(C)C)C(=O)N[C@H]1C(=O)N[C@@H](CC(N)=O)C(=O)N[C@H]2C(=O)N[C@H]3C(=O)N[C@H](C(=O)N[C@H](C(=O)O)c4cc(O)cc(O)c4-c4cc3ccc4O)[C@H](O)c3ccc(c(Cl)c3)Oc3cc2cc(c3O[C@@H]2O[C@H](CO)[C@@H](O)[C@H](O)[C@H]2O[C@H]2C[C@](C)(N)[C@H](O)[C@H](C)O2)Oc2ccc(cc2Cl)[C@H]1O [Vancomycin, vancomycin] | – | – | – | – | – | – | – | – | – | – | – | – | MIC ([1]; strain M600, 0 μg/ml Indolmycin): 110 µg/mL; MIC ([1]; strain M600, 10 μg/ml Indolmycin): 110 µg/mL; MIC ([1]; strain M600, 25 μg/ml Indolmycin): 110 µg/mL; MIC ([1]; strain M600, 50 μg/ml Indolmycin): 110 µg/mL; MIC ([1]; strain M600, 75 μg/ml Indolmycin): 110 µg/mL; MIC ([1]; strain M600, 100 μg/ml Indolmycin): 70 µg/mL; more sensitive in the presence of indolmycin ([1]; strain M600, about 100 μg/mL indolmycin): 1.6 times; MIC ([2]; Streptomyces coelicolor, B728, 48 h): 130 µg/mL; MIC ([2]; strain B728, 10 μg/ml Indolmycin, 30° C., 48 hours): 130 µg/mL; MIC ([2]; strain B728, 25 μg/ml Indolmycin, 30° C., 48 hours): 130 µg/mL; MIC ([2]; strain B728, 50 μg/ml Indolmycin, 30° C., 48 hours): 130 µg/mL; MIC ([2]; strain B728, 75 μg/ml Indolmycin, 30° C., 48 hours): 130 µg/mL; MIC ([2]; strain B728, 100 μg/ml Indolmycin, 30° C., 48 hours): 130 µg/mL
